Test in all cases: cAMP functional assay (HTRF) in HEK293 cells in presence of 0.1% casein
What all share (type): cell-based
Background: Time-resolved FRET reads energy transfer from a long-lived donor to a nearby acceptor.

Test [1] deals with T1, human glucose-dependent insulinotropic peptide receptor (GIPR) (Homo sapiens, UniProt P48546).
T1 construct: expressed in transfected cells; host or cells: HEK293
T1 sequence (P48546 22-466): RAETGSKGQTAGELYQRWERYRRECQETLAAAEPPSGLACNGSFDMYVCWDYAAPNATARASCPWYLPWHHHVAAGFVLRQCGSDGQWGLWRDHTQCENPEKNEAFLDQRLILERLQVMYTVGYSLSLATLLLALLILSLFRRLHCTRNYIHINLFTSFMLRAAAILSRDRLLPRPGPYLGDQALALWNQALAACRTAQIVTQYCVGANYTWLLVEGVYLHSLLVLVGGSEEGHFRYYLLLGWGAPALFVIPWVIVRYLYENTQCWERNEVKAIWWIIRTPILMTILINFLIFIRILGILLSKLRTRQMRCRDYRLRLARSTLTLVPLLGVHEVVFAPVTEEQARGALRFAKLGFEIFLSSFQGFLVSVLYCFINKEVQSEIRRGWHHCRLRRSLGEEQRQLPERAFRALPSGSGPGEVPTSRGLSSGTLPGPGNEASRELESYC
Particulars: HEK293 cells expressing human GIPR, geometric mean, read-out: hGIPR cAMP Rel EC50 nM (SEM, n).

Test [2] concerns the target T2, human glucagon receptor (GcgR) (Homo sapiens, UniProt P47871).
T2 construct: expressed in transfected cells; host or cells: HEK293
Particulars: HEK293 cells expressing human GcgR, geometric mean, read-out: hGcgR cAMP Rel EC50 nM (SEM, n).

Test [3] addresses T3, human GLP-1 receptor (GLP-1R) (Homo sapiens, UniProt P43220).
T3 construct: expressed in transfected cells; host or cells: HEK293
Particulars: HEK293 cells expressing human GLP-1R, geometric mean, read-out: hGLP1R cAMP Rel EC50 nM (SEM, n).

Each structure is given as a SMILES string. *1 amine or outer side, *2 acyl side, *3 side chain or, on linkers, in order; H or OH if unused. Where a SMILES comes first, the peptide text is derived from it. Side-chain parts run from the residue outwards. [ ]: non-standard residue; d: D form. The star is where a group is joined. C20 diacid = O=C(O)CCCCCCCCCCCCCCCCCCC(=O)*; αMePhe(2-F) = C[C@](N)(Cc1ccccc1F)C(=O)O; γGlu = O=C(O)[C@H](CCC(=O)[*:2])N[*:1]; 4Pal = N[C@@H](Cc1ccncc1)C(=O)O; αMeL = CC(C)C[C@](C)(N)C(=O)O; AEEA = NCCOCCOCC(=O)O; Aib = CC(C)(N)C(=O)O Bounds are passed on as bounds.

Experimental findings from patent publication US12723063B2, “GIPR-agonist compounds” (Eli Lilly and Company, priority 2019, dated 2026) are described below.

T2 sequence (P47871 26-477): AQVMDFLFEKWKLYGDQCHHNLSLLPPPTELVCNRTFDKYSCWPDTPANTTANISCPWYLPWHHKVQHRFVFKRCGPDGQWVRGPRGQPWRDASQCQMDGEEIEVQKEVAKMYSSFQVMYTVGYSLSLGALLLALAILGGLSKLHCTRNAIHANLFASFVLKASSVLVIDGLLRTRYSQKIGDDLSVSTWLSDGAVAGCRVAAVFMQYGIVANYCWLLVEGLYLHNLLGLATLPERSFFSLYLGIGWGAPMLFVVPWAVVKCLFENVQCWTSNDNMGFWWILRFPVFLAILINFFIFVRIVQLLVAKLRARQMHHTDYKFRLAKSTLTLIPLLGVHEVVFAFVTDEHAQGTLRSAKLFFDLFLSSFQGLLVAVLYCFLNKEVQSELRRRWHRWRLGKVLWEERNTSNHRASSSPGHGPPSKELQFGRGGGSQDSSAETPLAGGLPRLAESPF
T3 sequence (P43220 24-463): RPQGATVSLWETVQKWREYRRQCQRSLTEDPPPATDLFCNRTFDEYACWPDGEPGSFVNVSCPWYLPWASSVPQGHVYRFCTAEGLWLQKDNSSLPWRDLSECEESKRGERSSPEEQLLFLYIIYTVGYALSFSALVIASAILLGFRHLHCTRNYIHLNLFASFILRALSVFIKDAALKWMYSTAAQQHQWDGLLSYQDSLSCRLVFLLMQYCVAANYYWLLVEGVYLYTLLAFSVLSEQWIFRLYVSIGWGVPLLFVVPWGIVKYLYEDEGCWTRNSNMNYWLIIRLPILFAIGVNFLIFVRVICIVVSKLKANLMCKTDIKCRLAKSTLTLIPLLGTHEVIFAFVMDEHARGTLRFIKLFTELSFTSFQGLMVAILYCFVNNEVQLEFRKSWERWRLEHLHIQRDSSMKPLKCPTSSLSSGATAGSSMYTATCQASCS

Regarding `CC[C@H](C)[C@H](NC(=O)[C@H](CCCCN)NC(=O)[C@H](CC(=O)O)NC(=O)[C@H](CC(C)C)NC(=O)[C@](C)(CC(C)C)NC(=O)[C@@H](NC(=O)[C@H](CO)NC(=O)[C@H](Cc1ccc(O)cc1)NC(=O)[C@H](CC(=O)O)NC(=O)[C@H](CO)NC(=O)[C@@H](NC(=O)[C@H](Cc1ccccc1)NC(=O)[C@@H](NC(=O)CNC(=O)[C@H](CCC(=O)O)NC(=O)C(C)(C)NC(=O)[C@@H](N)Cc1ccc(O)cc1)[C@@H](C)O)[C@@H](C)CC)[C@@H](C)CC)C(=O)N[C@@H](Cc1c[nH]cn1)C(=O)N[C@@H](CCC(N)=O)C(=O)NC(C)(C)C(=O)N[C@@H](CC(=O)O)C(=O)N[C@@H](Cc1ccccc1)C(=O)N[C@H](C(=O)N[C@@H](CCC(=O)O)C(=O)N[C@@H](Cc1ccc(O)cc1)C(=O)N[C@@H](CCCCNC(=O)COCCOCCNC(=O)COCCOCCNC(=O)CC[C@H](NC(=O)CCCCCCCCCCCCCCCCCCC(=O)O)C(=O)O)C(=O)N[C@@H](CC(C)C)C(=O)N[C@@H](CCC(=O)O)C(=O)N[C@@H](C)C(=O)NCC(=O)N1CCC[C@H]1C(=O)N[C@@H](CO)C(=O)N[C@@H](CO)C(=O)NCC(=O)N[C@@H](C)C(=O)N1CCC[C@H]1C(=O)N1CCC[C@H]1C(=O)N1CCC[C@H]1C(=O)N[C@@H](CO)C(N)=O)C(C)C` [Example 117] (H-Y[Aib]EGTFISDYSI[αMeL]LDKIHQ[Aib]DFVEYK([AEEA-AEEA-γGlu-C20 diacid])LEAGPSSGAPPPS-NH2), the half-maximal effective concentration (EC50) (commonly the midpoint of the concentration-response curve) in test [1] was 0.0617 nM; in test [2], above 5000 nM; in test [3], above 5000 nM.

`CC[C@H](C)[C@H](NC(=O)[C@H](CO)NC(=O)[C@H](Cc1ccc(O)cc1)NC(=O)[C@H](CC(=O)O)NC(=O)[C@H](CO)NC(=O)[C@@H](NC(=O)[C@](C)(Cc1ccccc1F)NC(=O)[C@@H](NC(=O)CNC(=O)[C@H](CCC(=O)O)NC(=O)C(C)(C)NC(=O)[C@@H](N)Cc1ccc(O)cc1)[C@@H](C)O)[C@@H](C)CC)C(=O)N[C@@H](CC(C)C)C(=O)N[C@@H](CC(C)C)C(=O)N[C@@H](CC(=O)O)C(=O)N[C@@H](CCCCN)C(=O)N[C@H](C(=O)N[C@@H](Cc1c[nH]cn1)C(=O)N[C@@H](CCC(N)=O)C(=O)NC(C)(C)C(=O)N[C@@H](CC(=O)O)C(=O)N[C@@H](Cc1ccccc1)C(=O)N[C@H](C(=O)N[C@@H](CCC(=O)O)C(=O)N[C@@H](Cc1ccncc1)C(=O)N[C@@H](CCCCNC(=O)COCCOCCNC(=O)COCCOCCNC(=O)CC[C@H](NC(=O)CCCCCCCCCCCCCCCCCCC(=O)O)C(=O)O)C(=O)N[C@@H](CC(C)C)C(=O)N[C@@H](CCC(=O)O)C(=O)NCC(=O)NCC(=O)N1CCC[C@H]1C(=O)N[C@@H](CO)C(=O)N[C@@H](CO)C(=O)NCC(=O)N[C@@H](C)C(=O)N1CCC[C@H]1C(=O)N1CCC[C@H]1C(=O)N1CCC[C@H]1C(=O)N[C@@H](CO)C(N)=O)C(C)C)[C@@H](C)CC` [Example 119] (H-Y[Aib]EGT[αMePhe(2-F)]ISDYSILLDKIHQ[Aib]DFVE[4Pal]K([AEEA-AEEA-γGlu-C20 diacid])LEGGPSSGAPPPS-NH2): the concentration giving a half-maximal response (EC50) in test [1] is 0.022 nM; in test [2], above 5000 nM; in test [3], above 5000 nM.

Turning to `CC[C@H](C)[C@H](NC(=O)[C@H](CO)NC(=O)[C@H](Cc1ccc(O)cc1)NC(=O)[C@H](CC(=O)O)NC(=O)[C@H](CO)NC(=O)[C@@H](NC(=O)[C@](C)(Cc1ccccc1F)NC(=O)[C@@H](NC(=O)CNC(=O)[C@H](CCC(=O)O)NC(=O)C(C)(C)NC(=O)[C@@H](N)Cc1ccc(O)cc1)[C@@H](C)O)[C@@H](C)CC)C(=O)N[C@@H](CC(C)C)C(=O)N[C@@H](CC(C)C)C(=O)N[C@@H](CC(=O)O)C(=O)N[C@@H](CCCCN)C(=O)N[C@H](C(=O)N[C@@H](Cc1c[nH]cn1)C(=O)N[C@@H](CCC(N)=O)C(=O)NC(C)(C)C(=O)N[C@@H](CC(=O)O)C(=O)N[C@@H](Cc1ccccc1)C(=O)N[C@H](C(=O)N[C@@H](CCC(=O)O)C(=O)N[C@@H](Cc1ccncc1)C(=O)N[C@@H](CCCCNC(=O)COCCOCCNC(=O)COCCOCCNC(=O)CC[C@H](NC(=O)CCCCCCCCCCCCCCCCCCC(=O)O)C(=O)O)C(=O)N[C@@H](CC(C)C)C(=O)N[C@@H](CCC(=O)O)C(=O)N[C@@H](C)C(=O)NCC(=O)N1CCC[C@H]1C(=O)N[C@@H](CO)C(=O)N[C@@H](CO)C(=O)NCC(=O)N[C@@H](C)C(=O)N1CCC[C@H]1C(=O)N1CCC[C@H]1C(=O)N1CCC[C@H]1C(=O)N[C@@H](CO)C(N)=O)C(C)C)[C@@H](C)CC` [Example 120] (H-Y[Aib]EGT[αMePhe(2-F)]ISDYSILLDKIHQ[Aib]DFVE[4Pal]K([AEEA-AEEA-γGlu-C20 diacid])LEAGPSSGAPPPS-NH2), the results for the 50% effective concentration (EC50) in test [1], in test [2] and in test [3] were 0.0228 nM, above 5000 nM and above 5000 nM, respectively.

On to `CC[C@H](C)[C@H](NC(=O)[C@H](CO)NC(=O)[C@H](Cc1ccc(O)cc1)NC(=O)[C@H](CC(=O)O)NC(=O)[C@H](CO)NC(=O)[C@@H](NC(=O)[C@](C)(Cc1ccccc1F)NC(=O)[C@@H](NC(=O)CNC(=O)[C@H](CCC(=O)O)NC(=O)C(C)(C)NC(=O)[C@@H](N)Cc1ccc(O)cc1)[C@@H](C)O)[C@@H](C)CC)C(=O)N[C@@H](CC(C)C)C(=O)N[C@@H](CC(C)C)C(=O)N[C@@H](CC(=O)O)C(=O)N[C@@H](CCCCN)C(=O)N[C@H](C(=O)N[C@@H](Cc1c[nH]cn1)C(=O)N[C@@H](CCC(N)=O)C(=O)NC(C)(C)C(=O)N[C@@H](CC(=O)O)C(=O)N[C@@H](Cc1ccccc1)C(=O)N[C@H](C(=O)N[C@@H](CCC(=O)O)C(=O)N[C@@H](Cc1ccncc1)C(=O)N[C@@H](CCCCNC(=O)COCCOCCNC(=O)COCCOCCNC(=O)CC[C@H](NC(=O)CCCCCCCCCCCCCCCCCCC(=O)O)C(=O)O)C(=O)N[C@@H](CC(C)C)C(=O)N[C@@H](CCC(=O)O)C(=O)N[C@@H](CCC(N)=O)C(=O)NCC(=O)N1CCC[C@H]1C(=O)N[C@@H](CO)C(=O)N[C@@H](CO)C(=O)NCC(=O)N[C@@H](C)C(=O)N1CCC[C@H]1C(=O)N1CCC[C@H]1C(=O)N1CCC[C@H]1C(=O)N[C@@H](CO)C(N)=O)C(C)C)[C@@H](C)CC` [Example 121] (H-Y[Aib]EGT[αMePhe(2-F)]ISDYSILLDKIHQ[Aib]DFVE[4Pal]K([AEEA-AEEA-γGlu-C20 diacid])LEQGPSSGAPPPS-NH2), for which the half-maximal effective concentration (EC50) in test [1] was 0.0196 nM; in test [2], above 5000 nM; in test [3] it was above 5000 nM.
